Laboratory results published in the NIST ThermoML archive (doi:10.1016/j.jct.2018.08.005).
Numbers after ± are expanded uncertainties.

Key:
[1] = molar heat capacity at constant pressure; xn = mol fraction of the nth substance listed; conditions: 100 kPa, Liquid, DSC, x2 = 0
[2] = molar heat capacity at constant pressure; conditions: 100 kPa, Liquid, DSC

CC(C)OC(C)C [diisopropyl ether] + CCOC(F)(C(F)(F)C(F)(F)C(F)(F)F)C(F)(C(F)(F)F)C(F)(F)F
[1]
Conditions | molar heat capacity at constant pressure [J/K/mol]
290.5 K | 211.5 ± 12
295.44 K | 213.44 ± 12
300.38 K | 215.28 ± 12
305.32 K | 217.33 ± 12
310.26 K | 219.37 ± 13
315.2 K | 221.41 ± 13
320.13 K | 223.46 ± 13
325.07 K | 225.5 ± 13
330.01 K | 227.65 ± 13
334.95 K | 229.89 ± 13
339.89 K | 232.04 ± 13

CC(C)OC(C)C [diisopropyl ether]
[2]
Conditions | molar heat capacity at constant pressure [J/K/mol]
290.5 K | 211.5 ± 12
295.44 K | 213.44 ± 12
300.38 K | 215.28 ± 12
305.32 K | 217.33 ± 12
310.26 K | 219.37 ± 13
315.2 K | 221.41 ± 13
320.13 K | 223.46 ± 13
325.07 K | 225.5 ± 13
330.01 K | 227.65 ± 13
334.95 K | 229.89 ± 13
339.89 K | 232.04 ± 13

CCOC(F)(C(F)(F)C(F)(F)C(F)(F)F)C(F)(C(F)(F)F)C(F)(F)F (configuration not stated) [2-trifluoromethyl-3-ethoxydodecafluorohexane]
[2]
Conditions | molar heat capacity at constant pressure [J/K/mol]
297.91 K | 466.29 ± 27
307.79 K | 472.92 ± 27
317.66 K | 479.54 ± 27
327.54 K | 486.58 ± 28
337.42 K | 494.03 ± 28
347.29 K | 500.66 ± 29
357.17 K | 508.53 ± 29
367.05 K | 517.23 ± 29
376.92 K | 523.85 ± 30
386.8 K | 531.72 ± 30
